Species on record: Rattus norvegicus
Assay: DrugMatrix - Regimen: Daily Repeat
Type: toxicity, organism-based, Sprague-Dawley
Set-up: regimen Daily Repeat, gender Male, age 6-8 weeks
Conditions: in vivo, po, route oral GAVAGE, vehicle 100 % WATER; for ABSOLUTE BASOPHIL / ABSOLUTE EOSINOPHIL / ABSOLUTE LYMPHOCYTE / ABSOLUTE MONOCYTE / ABSOLUTE SEGMENTED NEUTROPHIL / BASOPHIL / EOSINOPHIL / ERYTHROCYTE COUNT / HEMATOCRIT / HEMOGLOBIN / LEUKOCYTE COUNT / LYMPHOCYTE / MEAN CORPUSCULAR HEMOGLOBIN / MEAN CORPUSCULAR HEMOGLOBIN CONCENTRATION / MEAN CORPUSCULAR VOLUME / MONOCYTE / NEUTROPHIL / NUCLEATED RED BLOOD CELLS / PLATELET COUNT: tissue Blood; for ALANINE AMINOTRANSFERASE / ALBUMIN / ALKALINE PHOSPHATASE / ASPARTATE AMINOTRANSFERASE / BLOOD UREA NITROGEN / CARBON DIOXIDE / CHLORIDE / CHOLESTEROL / CREATINE PHOSPHOKINASE / CREATININE / GLUCOSE / LACTATE DEHYDROGENASE / LIPASE / PHOSPHORUS / POTASSIUM / SODIUM / TOTAL BILIRUBIN / TOTAL PROTEIN / URIC ACID: tissue Plasma
[1] = 20 mg/kg, 120 h, dose level Low, time 5 day
[2] = 160 mg/kg, 72 h, dose level High, time 3 day
[3] = 160 mg/kg, 120 h, dose level High, time 5 day

CN(C)CCC=C1c2ccccc2CCc2ccccc21 [AMITRIPTYLINE]
ABSOLUTE BASOPHIL [1]: 0 CELLS/uL | ABSOLUTE EOSINOPHIL [1]: 0 CELLS/uL | ABSOLUTE LYMPHOCYTE [1]: 11980.67 CELLS/uL | ABSOLUTE MONOCYTE [1]: 40.67 CELLS/uL | ABSOLUTE SEGMENTED NEUTROPHIL [1]: 1045.33 CELLS/uL | BASOPHIL [1]: 0% | EOSINOPHIL [1]: 0% | ERYTHROCYTE COUNT [1]: 5.76 x10E6/uL | HEMATOCRIT [1]: 35.93% | HEMOGLOBIN [1]: 14.33 G/DL | LEUKOCYTE COUNT [1]: 13.07 x10E3/uL | LYMPHOCYTE [1]: 91.33% | MEAN CORPUSCULAR HEMOGLOBIN [1]: 24.93 pg | MEAN CORPUSCULAR HEMOGLOBIN CONCENTRATION [1]: 39.9 G/DL | MEAN CORPUSCULAR VOLUME [1]: 62.43 fL | MONOCYTE [1]: 0.33% | NEUTROPHIL [1]: 8.33% | NUCLEATED RED BLOOD CELLS [1]: 0.33 /100WBC | PLATELET COUNT [1]: 1316.67 x10E3/uL | ALANINE AMINOTRANSFERASE [1]: 43.67 u/L | ALBUMIN [1]: 4 G/DL | ALKALINE PHOSPHATASE [1]: 394 u/L | ASPARTATE AMINOTRANSFERASE [1]: 89.67 u/L | BLOOD UREA NITROGEN [1]: 15.33 mg/dL | CARBON DIOXIDE [1]: 30 mmol/L | CHLORIDE [1]: 100.33 MEQ/L | CHOLESTEROL [1]: 66.67 mg/dL | CREATINE PHOSPHOKINASE [1]: 486 u/L | CREATININE [1]: 0.18 mg/dL | GLUCOSE [1]: 145.33 mg/dL | LACTATE DEHYDROGENASE [1]: 605.67 u/L | LIPASE [1]: 11 u/L | PHOSPHORUS [1]: 12.43 mg/dL | POTASSIUM [1]: 6.68 MEQ/L | SODIUM [1]: 141.6 MEQ/L | TOTAL BILIRUBIN [1]: 0.2 mg/dL | TOTAL PROTEIN [1]: 5.97 G/DL | URIC ACID [1]: 1.87 mg/dL | ABSOLUTE BASOPHIL [2]: 0 CELLS/uL | ABSOLUTE EOSINOPHIL [2]: 85.33 CELLS/uL | ABSOLUTE LYMPHOCYTE [2]: 16571 CELLS/uL | ABSOLUTE MONOCYTE [2]: 212.67 CELLS/uL | ABSOLUTE SEGMENTED NEUTROPHIL [2]: 697.67 CELLS/uL | BASOPHIL [2]: 0% | EOSINOPHIL [2]: 0.67% | ERYTHROCYTE COUNT [2]: 5.93 x10E6/uL | HEMATOCRIT [2]: 38.63% | HEMOGLOBIN [2]: 15.33 G/DL | LEUKOCYTE COUNT [2]: 17.57 x10E3/uL | LYMPHOCYTE [2]: 94% | MEAN CORPUSCULAR HEMOGLOBIN [2]: 25.83 pg | MEAN CORPUSCULAR HEMOGLOBIN CONCENTRATION [2]: 39.7 G/DL | MEAN CORPUSCULAR VOLUME [2]: 65.13 fL | MONOCYTE [2]: 1% | NEUTROPHIL [2]: 4.33% | NUCLEATED RED BLOOD CELLS [2]: 0 /100WBC | PLATELET COUNT [2]: 1403.33 x10E3/uL | ALANINE AMINOTRANSFERASE [2]: 60 u/L | ALBUMIN [2]: 4.1 G/DL | ALKALINE PHOSPHATASE [2]: 422 u/L | ASPARTATE AMINOTRANSFERASE [2]: 80.33 u/L | BLOOD UREA NITROGEN [2]: 14 mg/dL | CARBON DIOXIDE [2]: 34 mmol/L | CHLORIDE [2]: 102 MEQ/L | CHOLESTEROL [2]: 83 mg/dL | CREATINE PHOSPHOKINASE [2]: 464 u/L | CREATININE [2]: 0.15 mg/dL | GLUCOSE [2]: 151.67 mg/dL | LACTATE DEHYDROGENASE [2]: 162.67 u/L | LIPASE [2]: 10.33 u/L | PHOSPHORUS [2]: 11.3 mg/dL | POTASSIUM [2]: 5.61 MEQ/L | SODIUM [2]: 145.53 MEQ/L | TOTAL BILIRUBIN [2]: 0.13 mg/dL | TOTAL PROTEIN [2]: 5.93 G/DL | URIC ACID [2]: 1.57 mg/dL | ABSOLUTE BASOPHIL [3]: 0 CELLS/uL | ABSOLUTE EOSINOPHIL [3]: 42.33 CELLS/uL | ABSOLUTE LYMPHOCYTE [3]: 10052.67 CELLS/uL | ABSOLUTE MONOCYTE [3]: 70 CELLS/uL | ABSOLUTE SEGMENTED NEUTROPHIL [3]: 435 CELLS/uL | BASOPHIL [3]: 0% | EOSINOPHIL [3]: 0.33% | ERYTHROCYTE COUNT [3]: 5.82 x10E6/uL | HEMATOCRIT [3]: 36.27% | HEMOGLOBIN [3]: 14.2 G/DL | LEUKOCYTE COUNT [3]: 10.6 x10E3/uL | LYMPHOCYTE [3]: 94.67% | MEAN CORPUSCULAR HEMOGLOBIN [3]: 24.37 pg | MEAN CORPUSCULAR HEMOGLOBIN CONCENTRATION [3]: 39.17 G/DL | MEAN CORPUSCULAR VOLUME [3]: 62.27 fL | MONOCYTE [3]: 0.67% | NEUTROPHIL [3]: 4.33% | NUCLEATED RED BLOOD CELLS [3]: 0.33 /100WBC | PLATELET COUNT [3]: 1249.67 x10E3/uL | ALANINE AMINOTRANSFERASE [3]: 49.67 u/L | ALBUMIN [3]: 4 G/DL | ALKALINE PHOSPHATASE [3]: 363.67 u/L | ASPARTATE AMINOTRANSFERASE [3]: 96.67 u/L | BLOOD UREA NITROGEN [3]: 14.67 mg/dL | CARBON DIOXIDE [3]: 30.33 mmol/L | CHLORIDE [3]: 100.67 MEQ/L | CHOLESTEROL [3]: 72.67 mg/dL | CREATINE PHOSPHOKINASE [3]: 1225 u/L | CREATININE [3]: 0.16 mg/dL | GLUCOSE [3]: 188 mg/dL | LACTATE DEHYDROGENASE [3]: 246.67 u/L | LIPASE [3]: 10.33 u/L | PHOSPHORUS [3]: 12.93 mg/dL | POTASSIUM [3]: 5.4 MEQ/L | SODIUM [3]: 143.4 MEQ/L | TOTAL BILIRUBIN [3]: 0.17 mg/dL | TOTAL PROTEIN [3]: 6.23 G/DL | URIC ACID [3]: 1.83 mg/dL

Source: ChEMBL document CHEMBL3885881, “DrugMatrix”
